Strand notation (5' to 3'): a small letter for the sugar, then the base; units joined by * are phosphorothioate-linked, units joined directly phosphodiester-linked; [ ] holds rarer units or linkages, { } end groups; capitals alone tell only the bases. l = locked nucleic acid (LNA); [5mC] = 5-methylcytosine; d = 2'-deoxy (DNA)
Columns and labels:
[1] = tested on: human androgen receptor mRNA; experiment: Inhibition of androgen receptor mRNA expression in MCF7 cells, real-time PCR after transfection; assay type: cell-based; details: 16 nM oligonucleotide, AR mRNA normalised to GAPDH, down-regulation relative to mock transfected cells
Protocol: (§1) FIG. 1. Oligonucleotides presented in Table 3 were evaluated for their potential to knockdown the androgen receptor mRNA at concentrations of 1, 4 and 16 n-M in MCF7 cells 24 hours after transfection using Real-time PCR. All results were normalised to GAPDH and inhibition of AR mRNA is shown as percent of untreated control. Results shown are an average of three independent experiments.
MCF7 The human breast cancer cell line MCF7 was cultured in EagleMEM (Sigma)+10% fetal bovine serum (FBS)+2 mM Glutamax I+1×NEAA+gentamicin (25 μg/ml).
(§2) The cell lines listed in Example 4 were treated with an oligomer using the cationic liposome formulation LipofectAMINE 2000 (Gibco) as transfection vehicle. Cells were seeded in 6-well cell culture plates (NUNC) and treated when 80-90% confluent. Oligomer concentrations used ranged from 1 nM to 16 nM final concentration. Formulation of oligomer-lipid complexes were carried out essentially as described by the manufacturer using serum-free OptiMEM (Gibco) and a final lipid concentration of 5 μg/mL LipofectAMINE 2000. Cells were incubated at 37° C. for 4 hours and treatment was stopped by removal of oligomer-containing culture medium. Cells were washed and serum-containing media was added. After oligomer treatment, cells were allowed to recover for 20 hours before they were harvested for RNA analysis.
(§3) Total RNA was extracted from cells transfected as described above and using the Qiagen RNeasy kit (Qiagen cat. no. 74104) according to the manufacturer's instructions. First strand synthesis was performed using Reverse Transcriptase reagents from Ambion according to the manufacturer's instructions.
(§4) For each sample, the volume of 0.5 •g total RNA was adjusted to 10.8 •l with RNase free H2O and mixed with 2 •l random decamers (50 •M) and 4 •l dNTP mix (2.5 mM each dNTP) and heated to 70° C. for 3 min, after which the samples were rapidly cooled on ice. After cooling the samples on ice, 2 •l 10× Buffer RT, 1 •l MMLV Reverse Transcriptase (100 U/•l) and 0.25 •l RNase inhibitor (10 U/•l) were added to each sample, followed by incubation at 42° C. for 60 min, heat inactivation of the enzyme at 95° C. for 10 min and then cooling of the sample to 4° C.
(§5) The amount of human androgen receptor mRNA in the samples was quantified using the human androgen receptor ABI Prism Pre-Developed TaqMan Assay Reagents (Applied Biosystems cat. no. Hs00171172_m1) according to the manufacturer's instructions.
(§6) Glyceraldehyde-3-phosphate dehydrogenase (GAPDH) mRNA quantity was used as an endogenous control for normalizing any variance in sample preparation.
(§7) The cDNA from the first strand synthesis performed as described in Example 6 was diluted 2-20 times, and analyzed by real time quantitative PCR using Taquman 7500 FAST or 7900 FAST from Applied Biosystems. The primers and probe were mixed with 2× Taqman Fast Universal PCR master mix (2×) (Applied Biosystems Cat. #4364103) and added to 4 μl cDNA to a final volume of 10 μl. Each sample was analysed in duplicate. Standard curves were generated by assaying 2-fold dilutions of a cDNA that had been prepared on material purified from a cell line expressing the RNA of interest. Sterile H2O was used instead of cDNA for the no-template control. PCR program: 95° C. for 30 seconds, followed by 40 cycles of 95° C., 3 seconds, 60° C., 20-30 seconds. Relative quantities of target mRNA were determined from the calculated Threshold cycle using the Applied Biosystems Fast System SDS Software Version 1.3.1.21. or SDS Software Version 2.3.
(§8) Oligonucleotides presented in Table 3 were evaluated for their potential to knock down androgen receptor mRNA expression at concentrations of 1, 4 and 16 nM (see FIGS. 1 and 2).
(§9) The data in Table 3 are presented as percentage down-regulation relative to mock transfected cells at 16 nM. Lower case letters represent DNA monomers, bold, upper case letters represent β-D-oxy-LNA monomers. All cytosine bases in the LNA monomers are 5-methylcytosines. […]

[2] = tested on: human androgen receptor mRNA; experiment: Inhibition of androgen receptor mRNA expression in A549 cells, real-time PCR after transfection; assay type: cell-based; details: 16 nM oligonucleotide, AR mRNA normalised to GAPDH, down-regulation relative to mock transfected cells
Protocol: as §1, with “2.” for “1.”, “nM” for “n-M”, “A549” for “MCF7”
A549 The human lung cancer cell line […] was cultured in DMEM (Sigma)+10% fetal bovine serum (FBS)+2 mM Glutamax I+gentamicin (25 μg/ml).
as §2, §3, §4, §5, §6, §7, §8, §9

[3] = tested on: mouse androgen receptor mRNA; experiment: In vivo knock-down of AR mRNA expression in mouse liver (QPCR); details: nude mice, 100 mg/kg i.v. q3dx4, liver 24 h after last dosing, normalised to mouse GAPDH, relative to saline treated animals
Protocol: Nude mice were dosed i.v. q3dx4 with 100 mg/kg oligonucleotide (group size of 5 mice). The antisense oligonucleotides (SEQ ID:48, SEQ ID:51, SEQ ID:58, SEQ ID:63, SEQ ID:77) were dissolved in phosphate buffered saline. Animals were sacrificed 24 h after last dosing and liver tissue was sampled and stored in RNA later until RNA extraction and QPCR analysis. Total RNA was extracted and AR mRNA expression in liver samples was measured by QPCR as described in Example 7 using a mouse AR QPCR assay (cat. Mm01238475_m1, Applied Biosystems). Results were normalised to mouse GAPDH (cat. no. 4352339E, Applied Biosystems) and knock-own was quantitated relative to saline treated controls. The data in Table 4 are presented as percentage down-regulation relative to saline treated animals.

Substance	Percent inhibition of Androgen receptor - MCF7 [1]	Percent inhibition of Androgen receptor - A549 [2]	Liver (% KD) of AR mRNA expression [3]
5′-CsAsTscscsasasascstscststsGsAsG-3′ (antisense l[5mC]*lA*lT*dC*dC*dA*dA*dA*dC*dT*dC*dT*dT*lG*lA*lG) [SEQ ID NO: 66, LNA gapmer antisense oligonucleotide]	79.8%	95.3%	–
5′-GsAsGsasascscsastscscstscsAsCsC-3′ (antisense lG*lA*lG*dA*dA*dC*dC*dA*dT*dC*dC*dT*dC*lA*l[5mC]*l[5mC]) [SEQ ID NO: 44]	80.1%	63.8%	–
5′-TsCsCstsgsgsasgststsgsascsAsTsT-3′ (antisense lT*l[5mC]*l[5mC]*dT*dG*dG*dA*dG*dT*dT*dG*dA*dC*lA*lT*lT) [SEQ ID NO: 62, LNA gapmer antisense oligonucleotide]	81.3%	93.0%	–
5′-GsGsAscscsasgsgstsasgscscsTsGsT-3′ (antisense lG*lG*lA*dC*dC*dA*dG*dG*dT*dA*dG*dC*dC*lT*lG*lT) [SEQ ID NO: 45, LNA gapmer antisense oligonucleotide]	89.0%	88.2%	–
5′-CsAsGsgscsasgsasasgsascsasTsCsT-3′ (antisense l[5mC]*lA*lG*dG*dC*dA*dG*dA*dA*dG*dA*dC*dA*lT*l[5mC]*lT) [SEQ ID NO: 76, LNA gapmer antisense oligonucleotide]	85.9%	94.3%	–
5′-CsTsTsgsgscscscsascststsgsAsCsC-3′ (antisense l[5mC]*lT*lT*dG*dG*dC*dC*dC*dA*dC*dT*dT*dG*lA*l[5mC]*l[5mC]) [SEQ ID NO: 61, LNA gapmer antisense oligonucleotide]	86.7%	93.3%	–
5′-GsCsTststscsastsgscsascsasgsGsA-3′ (antisense lG*l[5mC]*lT*dT*dT*dC*dA*dT*dG*dC*dA*dC*dA*dG*lG*lA) [SEQ ID NO: 67, LNA gapmer antisense oligonucleotide]	83.5%	97.0%	–
5′-CsCsCscstsgsgsascstscsasgsAsTsG-3′ (antisense l[5mC]*l[5mC]*l[5mC]*dC*dT*dG*dG*dA*dC*dT*dC*dA*dG*lA*lT*lG) [SEQ ID NO: 46, LNA gapmer antisense oligonucleotide]	89.4%	82.8%	–
5′-TsTsGscsascsasgsasgsastsgsAsTsC-3′ (antisense lT*lT*lG*dC*dA*dC*dA*dG*dA*dG*dA*dT*dG*lA*lT*l[5mC]) [SEQ ID NO: 72, LNA gapmer antisense oligonucleotide]	79.2%	90.4%	–
5′-GsCsAscsasasgsgsasgstsgsgsGsAsC-3′ (antisense lG*l[5mC]*lA*dC*dA*dA*dG*dG*dA*dG*dT*dG*dG*lG*lA*l[5mC]) [SEQ ID NO: 47, LNA gapmer antisense oligonucleotide]	83.1%	77.7%	–
5′-GsAsAsgststscsastscsasasasGsAsA-3′ (antisense lG*lA*lA*dG*dT*dT*dC*dA*dT*dC*dA*dA*dA*lG*lA*lA) [SEQ ID NO: 68, LNA gapmer antisense oligonucleotide]	88.2%	85.6%	–
5′-TsTsTsgsascsascsasasgstsgsGsGsA-3′ (antisense lT*lT*lT*dG*dA*dC*dA*dC*dA*dA*dG*dT*dG*lG*lG*lA) [SEQ ID NO: 51, LNA gapmer antisense oligonucleotide]	–	–	65.0 +/− 12.6%
5′-CsAsTscscscstsgscststscsasTsAsA-3′ (antisense l[5mC]*lA*lT*dC*dC*dC*dT*dG*dC*dT*dT*dC*dA*lT*lA*lA) [SEQ ID NO: 57, LNA gapmer antisense oligonucleotide]	89.5%	88.9%	–

— patent publication US7737125B2, “LNA antagonists targeting the androgen receptor” (Enzon Pharamaceuticals, Inc., priority 2007, dated 2010)
